Source: article PMC3465347, “Regulation of NF-κB Activation through a Novel PI-3K-Independent and PKA/Akt-Dependent Pathway in Human Umbilical Vein Endothelial Cells” (PLoS ONE, 2012)

Assays:
PKA = biological target: T1, PKA (Homo sapiens, UniProt P17612); test: PKA activity assay; type: cell-based
T1 construct: PKA was immunoprecipitated from the total cell lysates of unstimulated and TNF-α-stimulated endothelial cells; endogenous in cells; host or cells: HUVEC (treated with MPTAG, SQ 22536, H-89 ± TNF-α), anti-PKAα immunoprecipitate
Source text: PKA was immunoprecipitated from the total cell lysates of unstimulated and TNF-α-stimulated endothelial cells in presence and absence of treatment with agents indicated in Figure 7 using anti-PKAα (W-18) antibody. The immunoprecipates were subjected to kinase activity assay using a Bisamide Rhodamine 110 peptide substrate as per the instructions of the Profluor PKA assay kit (Promega, USA).

[1] = tested on: NF-κB DNA-binding activity in HUVECs; test: NF-κB activation assay (EMSA) in nuclear extracts; type: cell-based, human; conditions: wortmannin 100 µM or H-89 20 µM, 30 mins, then TNF-α 10 ng/ml
Protocol: The endothelial cells were subjected to the indicated treatments followed by induction with TNF-α for indicated time points or 30 mins. The cells were then washed with PBS and dislodged using a cell scraper. The cytoplasmic and nuclear extracts were prepared as described previously, [46].
NF-κB activation in the nuclear extracts of human endothelial cells was assessed by electrophoretic mobility shift assay (EMSA) as described previously, [46]. For supershift experiment, nuclear extracts prepared from unstimulated and TNF-α-stimulated cells were incubated with antibodies against the p50 or p65 subunit of NF-κB or -α-tubulin for 15 mins at 37°C before the complex was analyzed by EMSA. Addition of equal amount of radioactive-labelled probe to all the samples was indicated by the similar intensity of the unincorporated probe observed towards the end of the gel.

[2] = tested on: Akt phosphorylation in HUVECs; test: Akt phosphorylation western blot; type: cell-based, human; conditions: wortmannin 100 µM or H-89 20 µM, 30 mins, then TNF-α 10 ng/ml 30 mins
Protocol: Nuclear and cytoplasmic extracts were fractionated on SDS-PAGE with equal amount of proteins per well and transferred onto PVDF membranes and those membranes were incubated with appropriate primary antibodies and treated with HRP conjugated secondary antibodies followed by detection with DAB-H2O2 system. β-tubulin, α-actin and Lamin B1 were used as loading controls. Antibodies against NF-κBp65, phosphoNF-κBp65, IκBα, phosphoIκBα, IKK-β, Akt, phosphoAkt (Ser473) and phosphoAkt (Thr308) were used.

[3] = tested on: TNF-α-induced E-selectin expression on human endothelial cells; parameters: method as in PMID 21315792; conditions: dose-dependent; cited from earlier work
[4] = tested on: TNF-α-induced ICAM-1 expression on human endothelial cells; parameters: method as in PMID 21315792; conditions: dose-dependent; cited from earlier work
[5] = tested on: adhesion of neutrophils to the endothelium monolayer; parameters: method as in PMID 21315792; conditions: dose-dependent; cited from earlier work
[6] = tested on: TNF-α-induced VCAM-1 expression on human endothelial cells; parameters: method as in PMID 21315792; conditions: dose-dependent; cited from earlier work
PI-3K = PI-3K activity assay; type: cell-based, human; conditions: pretreatment, HUVECs
Source text: The catalytic domain of PI-3K was immunoprecipitated from the stimulated and unstimulated endothelial in presence and absence of various compound treatment using an anti-p85α (N-18) antibody. The immunoprecipated proteins were subjected to kinase activity assay using a PI substrate, diC8 followed by detection of the PI(3)P as per the instructions of the Class III PI-3kinase kit (Echelon, USA).

Which PKA activity (PKA; H-89 treatment, even in presence of MPTAG) does the source give for `O=S(=O)(NCCNC/C=C/c1ccc(Br)cc1)c1cccc2cnccc12` [H-89, reference compound] here?
The PKA activity was “inhibited”.

And the “TNF-α-induced NF-κB activation (EMSA), kinase inhibitor alone” value [1]?
The value was “enhanced”.

What about the “TNF-α-induced Akt phosphorylation (Thr308), kinase inhibitor alone” value [2] of the same compound?
Its value is “enhanced”.

For `Cc1occc(=O)c1O[C@@H]1O[C@H](CO)[C@@H](O)[C@H](O)[C@H]1O` [MPG, 2-methyl-pyran-4-one-3-O-β-D-glucopyranoside], which “inhibition of TNF-α-induced E-selectin expression” value [3] is on record?
Its value is “inhibited”.

What about the “inhibition of TNF-α-induced ICAM-1 expression” value [4] of the same compound?
Its value is “inhibited”.

And the “inhibition of adhesion of neutrophils to the endothelium monolayer” value [5]?
The value was “inhibited”.

What about the “inhibition of TNF-α-induced VCAM-1 expression” value [6] of the same compound?
The value was “inhibited”.

Which “PKA activity in unstimulated HUVECs” value (PKA; SQ 22536 treatment alone) does the source give for `Nc1ncnc2c1ncn2C1CCCO1` (centres unmarked) [SQ 22536, reference compound] here?
The value was “moderately suppressed”.

Which results are given for `COC[C@H]1OC(=O)c2coc3c2[C@@]1(C)C1=C(C3=O)[C@@H]2CCC(=O)[C@@]2(C)C[C@H]1OC(C)=O` [wortmannin, Wortmannin, reference compound]?
TNF-α-induced NF-κB activation (EMSA), kinase inhibitor alone [1]: inhibited; TNF-α-induced Akt phosphorylation (Thr308), kinase inhibitor alone [2]: inhibited; TNF-α-induced PI-3K activity (PI-3K): abolished
